The text below walks through data of PMC6661952 (BMC Chemistry, 2019).

For the series the following is noted: for Log k (logarithm of the retention factor): C18 column, methanol-water; for φ 0 (isocratic chromatographic hydrophobicity index): φ 0 = − log kw/S, methanol as organic modifier, C18; for Log kw (lipophilicity chromatographic index, intercept of log k = log kw − S φ): extrapolated to pure water as eluent, C18, methanol-water. The protocol:
For chromatographic analysis, stock solutions (200 μg/mL) of each of the investigated samples were prepared in methanol. HPLC measurements were performed utilizing Shimadzu Prominence HPLC system (Shimadzu Corporation, Japan) consisting of LC-20 AD pump, DGU-20 A5 degasser, CBM-20A interface, and SPD-20A UV–Vis detector with a 20 µL injection loop. The column utilized for studying the chromatographic behavior of the analytes was the most frequently used for lipophilicity investigations: Waters symmetry® C18 column [250 mm × 4.6 mm (i.d.), 5-μm particle size]. The flow rate was 1.2 mL/min at room temperature. The retention behaviour of the analytes was investigated as a function of mobile phase composition ranging from 60–80% methanol and 40–20% water. The HPLC analyses were carried out at room temperature under isocratic conditions. Membrane filters (0.45 μm) from Sartorius (Goettingen, Germany) were used for filtration of samples. The absorbance of the analytes during a chromatographic run was performed at 200 nm. Each experiment was run in duplicate. Chromatographic data were collected using LabSolutions CS software. H^1NMR spectra were recorded using Bruker NMR spectrometer (Bruker GmbH, Germany),
It was shown from previous reports that the chromatographic systems using methanol: water as mobile phases were better for log k modeling than those containing acetonitrile as an organic modifier. […] Chromatographic techniques including HPLC are based on the determination of the retention parameters. The indices of lipophilicity measured by HPLC are obtained from the logarithm of the retention factor (log k), which is calculated by the following equation:1 logk=logtr-t0/t0 where; tR is the retention time of the solute and t0 is the retention time of unretained species.
Estimating log kw directly is often very difficult, and is nearly non-feasible, because it can produce elongated retention time and also extreme peak broadening. […] Consequently, to obtain log kw, an extrapolation to 100% of pure water was carried out. Then, linear regression analysis was performed. Linear extrapolation is favored using definite ratios of organic modifier consistent with the lipophilicity level of the solutes.
Another substitute to the index of lipophilicity is the chromatographic index of hydrophobicity φ 0 which was first given by Valkò et al.. It is calculated simply by the equation: φ 0 = − log kw/S. φ0 denotes the volume fraction of the organic modifier in the mobile phase at which equal partitioning of the solute between the mobile and stationary phases is obtained, that is, k = 1, log k = 0 [22]. The value of φ 0 is specific for each compound; it relies solely on the pH, organic modifier and temperature.

Setting [1] is: 65% methanol in the mobile phase.
The mark [2] stands for this setting: 70% methanol in the mobile phase.
Setting [3] is: 75% methanol in the mobile phase.
The mark [4] stands for this setting: 60% methanol in the mobile phase.

Where “and” joins values, the source holds several entries; their conditions need not be identical. Identical values can stand only once. Like-named read-outs stand apart in the source and are kept apart here.

Turning to `Cc1ccc(-c2cc(C(F)(F)F)nn2-c2ccc(S(N)(=O)=O)cc2)cc1` [Celecoxib, 4-[5-(4-methylphenyl)-3-(trifluoromethyl)pyrazol-1yl]benzenesulfonamide, reference compound], the “Log k (logarithm of the retention factor)” value by setting is: under setting [1], 0.950; under setting [2], 0.83; under setting [3], 0.530; (80% methanol in the mobile phase) 0.235.

As to `O=C(CS(=O)(=O)c1ccccc1)c1ccccc1` [Compound 11a], the “φ 0 (isocratic chromatographic hydrophobicity index)” value is listed as 64.83. In addition, under setting [4], the “Log k (logarithm of the retention factor)” value came out at 0.088. In addition, under setting [1], the “Log k (logarithm of the retention factor)” value worked out at 0.041.

For `Cc1ccc(C(=O)CS(=O)(=O)c2ccccc2)cc1` [Compound 11b], the “Log kw (lipophilicity chromatographic index, intercept of log k = log kw − S φ)” value was 3.597 and 3.60; the “φ 0 (isocratic chromatographic hydrophobicity index)” value was found to be 69.81. In addition, the “Log k (logarithm of the retention factor)” value under setting [4] is on record as 0.317. In addition, the “Log k (logarithm of the retention factor)” value under setting [1] is 0.493.

As to `O=C(CS(=O)(=O)c1ccccc1)c1ccc(Br)cc1` [Compound 11c], the “Log kw (lipophilicity chromatographic index, intercept of log k = log kw − S φ)” value was 3.151 and 3.15; the “φ 0 (isocratic chromatographic hydrophobicity index)” value was 75.14. Further, under setting [4], the “Log k (logarithm of the retention factor)” value was found to be 0.635. The “Log k (logarithm of the retention factor)” value under setting [1] was determined as 0.501. Moreover, under setting [2], the “Log k (logarithm of the retention factor)” value worked out at 0.123.

For `Cc1ccc(S(=O)(=O)CC(=O)c2ccc(Br)cc2)cc1` [Compound 11d], the “Log kw (lipophilicity chromatographic index, intercept of log k = log kw − S φ)” value was 4.784 and 4.78; the “φ 0 (isocratic chromatographic hydrophobicity index)” value is listed as 77.99. For the same molecule, under setting [1], the “Log k (logarithm of the retention factor)” value turned out to be 0.901. The “Log k (logarithm of the retention factor)” value under setting [2] amounted to 0.364. Besides, the “Log k (logarithm of the retention factor)” value under setting [3] stood at 0.123.

Regarding `O=S(=O)(C/C(=N/O)c1ccccc1)c1ccccc1` [Compound 16a], the “Log kw (lipophilicity chromatographic index, intercept of log k = log kw − S φ)” value was 1.941 and 1.94; the “φ 0 (isocratic chromatographic hydrophobicity index)” value is listed as 64.39. Also, the “Log k (logarithm of the retention factor)” value under setting [4] was found to be 0.130. Further, the “Log k (logarithm of the retention factor)” value under setting [1] was determined as 0.053.

For `Cc1ccc(/C(CS(=O)(=O)c2ccccc2)=N\O)cc1` [Compound 16b], the “Log kw (lipophilicity chromatographic index, intercept of log k = log kw − S φ)” value was 2.715 and 2.72; the “φ 0 (isocratic chromatographic hydrophobicity index)” value turned out to be 72.57. Besides, under setting [4], the “Log k (logarithm of the retention factor)” value worked out at 0.481. The “Log k (logarithm of the retention factor)” value under setting [1] came to 0.280. The “Log k (logarithm of the retention factor)” value under setting [2] stood at 0.150.

In the case of `O=S(=O)(C/C(=N/Nc1ccccc1)c1ccccc1)c1ccccc1` [Compound 17a], the “Log kw (lipophilicity chromatographic index, intercept of log k = log kw − S φ)” value is on record as 4.59 and the “φ 0 (isocratic chromatographic hydrophobicity index)” value is 77.97. In addition, the “Log k (logarithm of the retention factor)” value under setting [4] was determined as 0.950. Moreover, under setting [1], the “Log k (logarithm of the retention factor)” value stood at 0.824. The “Log k (logarithm of the retention factor)” value under setting [2] came out at 0.740.

`Cc1ccc(/C(CS(=O)(=O)c2ccccc2)=N\Nc2ccccc2)cc1` [Compound 17b]: the “Log kw (lipophilicity chromatographic index, intercept of log k = log kw − S φ)” value was 5.182 and 5.18; the “φ 0 (isocratic chromatographic hydrophobicity index)” value worked out at 74.52. In addition, the “Log k (logarithm of the retention factor)” value under setting [4] was determined as 0.847. Moreover, the “Log k (logarithm of the retention factor)” value under setting [1] is recorded as 0.743. Further, the “Log k (logarithm of the retention factor)” value under setting [2] came to 0.611.
